Reference: ChEMBL document CHEMBL2417551, “Structure-guided design of novel thiazolidine inhibitors of O-acetyl serine sulfhydrylase from Mycobacterium tuberculosis” (J Med Chem, 2013)

Each molecule was assayed against O-acetylserine sulfhydrylase (Mycobacterium tuberculosis, UniProt P9WP55). Conditions: not given.

Row | Compound | IC50 [nM]
1 | CN1C(=O)/C(=C/c2ccc(N(C)C)cc2)S/C1=N\c1cccc(C(=O)O)c1 | 37
2 | COc1cc(/C=C2\S/C(=N\c3cccc(C(=O)O)c3)N(C)C2=O)ccc1O | 60
3 | C=CCN1C(=O)/C(=C/c2ccc(O)cc2)S/C1=N\c1cccc(C(=O)O)c1 | 110
4 | COc1ccc(/C=C2\S/C(=N\c3cccc(C(=O)O)c3)N(C)C2=O)cc1 | 33.9
5 | CCN1C(=O)/C(=C/c2ccc(OC)c(OC)c2)S/C1=N\c1cccc(C(=O)O)c1 | 56
6 | CCN1C(=O)/C(=C/c2ccc(O)cc2)S/C1=N\c1cccc(C(=O)O)c1 | 101
7 | CCCN1C(=O)/C(=C/c2ccc(O)cc2)S/C1=N\c1cccc(C(=O)O)c1 | 95.1
8 | COc1cc(/C=C2\S/C(=N\c3cccc(C(=O)O)c3)N(C)C2=O)cc(OC)c1OC | 69.9

Each molecule was assayed against O-acetylserine sulfhydrylase (Mycobacterium tuberculosis) (UniProt P9WP55). Conditions: at 500 nM.
Description: Inhibition of Mycobacterium tuberculosis N-terminal His-6-tagged recombinant CysK1 expressed in Escherichia coli BL21 (DE3) at 500 nM after 20 mins by spectrophotometric analysis

Row | Compound | inhibition [%]
9 | CCN1C(=O)/C(=C/c2cccc(O)c2)S/C1=N\c1cccc(C(=O)O)c1 | 52.8
10 | CCCCN1C(=O)/C(=C/c2ccc(O)cc2)S/C1=N\c1cccc(C(=O)O)c1 | 78.5
11 | CCN1C(=O)/C(=C/c2ccccc2C)S/C1=N\c1cccc(C(=O)O)c1 | 47
12 | CN1C(=O)/C(=C/c2ccc(N(C)C)cc2)S/C1=N\c1cccc(C(=O)O)c1 | 93.4
13 | CCN1C(=O)/C(=C/c2ccc(Cl)cc2)S/C1=N\c1cccc(C(=O)O)c1 | 54.4
14 | C=CCN1C(=O)/C(=C/c2ccc(OCC(=O)OC)cc2)S/C1=N\c1cccc(C(C)=O)c1 | 10.9
15 | COc1cc(/C=C2\S/C(=N\c3cccc(C(=O)O)c3)N(C)C2=O)ccc1O | 87.5
16 | Cc1ccccc1/C=C1\S/C(=N\c2cccc(C(=O)O)c2)N(C)C1=O | 57.4
17 | CCN1C(=O)/C(=C/c2cccc(C(F)(F)F)c2)S/C1=N\c1cccc(C(=O)O)c1 | 26
18 | CCCCN1C(=O)/C(=C/c2ccc(OCC(=O)O)cc2)S/C1=N\c1cccc(C(=O)O)c1 | 0
19 | CN1C(=O)/C(=C/c2ccco2)S/C1=N\c1cccc(C(=O)O)c1 | 30.1
20 | C=CCN1C(=O)/C(=C/c2ccc(O)cc2)S/C1=N\c1cccc(C(=O)O)c1 | 92.3
21 | Cc1ccc(/C=C2\S/C(=N\c3cccc(C(=O)O)c3)N(C)C2=O)cc1 | 45.6
22 | CN1C(=O)/C(=C/c2ccc[nH]2)S/C1=N\c1cccc(C(=O)O)c1 | 58.4
23 | COc1ccc(/C=C2\S/C(=N\c3cccc(C(=O)O)c3)N(C)C2=O)cc1 | 88.6
24 | CCCCN1C(=O)/C(=C/c2ccc(O)cc2)S/C1=N\c1cccc(C(C)=O)c1 | 25.1
25 | CCN1C(=O)/C(=C/c2ccco2)S/C1=N\c1cccc(C(=O)O)c1 | 29.2
26 | CCCCN1C(=O)/C(=C/c2ccc(OCC(=O)OC)cc2)S/C1=N\c1cccc(C(C)=O)c1 | 0
27 | CN1C(=O)/C(=C/c2c[nH]c3ccccc23)S/C1=N\c1cccc(C(=O)O)c1 | 73.5
28 | CN1C(=O)/C(=C/c2ccccc2O)S/C1=N\c1cccc(C(=O)O)c1 | 62.7
29 | CCN1C(=O)/C(=C/c2cccc(C)c2)S/C1=N\c1cccc(C(=O)O)c1 | 38.5
30 | CN1C(=O)/C(=C/c2ccccc2)S/C1=N\c1cccc(C(=O)O)c1 | 52.2
31 | CCN1C(=O)/C(=C/c2ccc(OCc3ccccc3)cc2)S/C1=N\c1cccc(C(=O)O)c1 | 81.1

Row | Compound | inhibition [%]
32 | CCCN1C(=O)/C(=C/c2ccc(OCC(=O)O)cc2)S/C1=N\c1cccc(C(=O)O)c1 | 0
33 | C=CCN1C(=O)/C(=C/c2ccc(O)cc2)S/C1=N\c1cccc(C(C)=O)c1 | 28.9
34 | CN1C(=O)/C(=C/c2ccccc2Br)S/C1=N\c1cccc(C(=O)O)c1 | 50.5
35 | CCN1C(=O)/C(=C/c2ccccc2OCC(=O)O)S/C1=N\c1cccc(C(=O)O)c1 | 15.9
36 | C=CCN1C(=O)/C(=C/c2ccc(OCC(=O)O)cc2)S/C1=N\c1cccc(C(C)=O)c1 | 0
37 | CCN1C(=O)/C(=C/c2ccc(C(C)C)cc2)S/C1=N\c1cccc(C(=O)O)c1 | 49.6
38 | CCN1C(=O)/C(=C/c2ccc(C)cc2)S/C1=N\c1cccc(C(=O)O)c1 | 41.7
39 | CCN1C(=O)/C(=C/c2ccc(O)c(OC)c2)S/C1=N\c1cccc(C(=O)O)c1 | 75.6
40 | CCN1C(=O)/C(=C/c2ccccc2)S/C1=N\c1cccc(C(=O)O)c1 | 39.3
41 | CCN1C(=O)/C(=C/c2ccc(OCC(=O)O)cc2)S/C1=N\c1cccc(C(C)=O)c1 | 10
42 | CCN1C(=O)/C(=C/c2cc(OC)c(OC)c(OC)c2)S/C1=N\c1cccc(C(=O)O)c1 | 37.4
43 | CCN1C(=O)/C(=C/c2ccccc2OCc2ccccc2)S/C1=N\c1cccc(C(=O)O)c1 | 59.3
44 | CCN1C(=O)/C(=C/c2ccc(OC)c(OC)c2)S/C1=N\c1cccc(C(=O)O)c1 | 90.9
45 | CC(=O)c1cccc(/N=C2\S/C(=C\c3ccc(OCC(=O)O)cc3)C(=O)N2C(C)C)c1 | 10.2
46 | COC(=O)COc1ccccc1/C=C1\S/C(=N\c2cccc(C(=O)O)c2)N(C(C)C)C1=O | 55.7
47 | COC(=O)COc1ccc(/C=C2\S/C(=N\c3cccc(C(=O)O)c3)N(C(C)C)C2=O)cc1 | 0
48 | CCN1C(=O)/C(=C/c2ccc(O)cc2)S/C1=N\c1cccc(C(=O)O)c1 | 90.2
49 | C=CCN1C(=O)/C(=C/c2ccccc2OCC(=O)OC)S/C1=N\c1cccc(C(=O)O)c1 | 38.6
50 | CCN1C(=O)/C(=C/c2ccc(OCC(=O)O)cc2)S/C1=N\c1cccc(C(=O)O)c1 | 36.9
51 | CN1C(=O)/C(=C/c2ccc(Cl)cc2Cl)S/C1=N\c1cccc(C(=O)O)c1 | 57.4
52 | CCN1C(=O)/C(=C/c2ccccc2Cl)S/C1=N\c1cccc(C(=O)O)c1 | 43.3
53 | CC(=O)c1cccc(/N=C2\S/C(=C\c3ccc(O)cc3)C(=O)N2C(C)C)c1 | 8.2
54 | CCCN1C(=O)/C(=C/c2ccc(OCC(=O)O)cc2)S/C1=N\c1cccc(C(C)=O)c1 | 0

Row | Compound | inhibition [%]
55 | CCN1C(=O)/C(=C/c2ccc(F)cc2)S/C1=N\c1cccc(C(=O)O)c1 | 68.3
56 | C=CCN1C(=O)/C(=C/c2ccc(OCC(=O)O)cc2)S/C1=N\c1cccc(C(=O)O)c1 | 1.4
57 | CN1C(=O)/C(=C/c2ccccc2Cl)S/C1=N\c1cccc(C(=O)O)c1 | 54.6
58 | CCCN1C(=O)/C(=C/c2ccc(O)cc2)S/C1=N\c1cccc(C(C)=O)c1 | 10.7
59 | CN1C(=O)/C(=C/c2ccc(Cl)c(Cl)c2)S/C1=N\c1cccc(C(=O)O)c1 | 60
60 | CCN1C(=O)/C(=C/c2ccccc2O)S/C1=N\c1cccc(C(=O)O)c1 | 53.2
61 | CCCN1C(=O)/C(=C/c2ccc(O)cc2)S/C1=N\c1cccc(C(=O)O)c1 | 95.1
62 | COc1cc(/C=C2\S/C(=N\c3cccc(C(=O)O)c3)N(C)C2=O)cc(OC)c1OC | 89.4
63 | CC(C)N1C(=O)/C(=C/c2ccccc2OCC(=O)O)S/C1=N\c1cccc(C(=O)O)c1 | 18.5
64 | CCCCN1C(=O)/C(=C/c2ccc(OCC(=O)OC)cc2)S/C1=N\c1cccc(C(=O)O)c1 | 16.4
65 | CN1C(=O)/C(=C/c2ccccn2)S/C1=N\c1cccc(C(=O)O)c1 | 64.4
66 | CCN1C(=O)/C(=C/c2ccc(Cl)cc2Cl)S/C1=N\c1cccc(C(=O)O)c1 | 45.4
67 | CN1C(=O)/C(=C/c2ccccc2OCc2ccccc2)S/C1=N\c1cccc(C(=O)O)c1 | 44.8
68 | CCN1C(=O)/C(=C/c2ccc[nH]2)S/C1=N\c1cccc(C(=O)O)c1 | 32.5
69 | CN1C(=O)/C(=C/c2ccc(Br)cc2)S/C1=N\c1cccc(C(=O)O)c1 | 70.5
70 | C=CCN1C(=O)/C(=C/c2ccccc2OCC(=O)O)S/C1=N\c1cccc(C(=O)O)c1 | 25.4
71 | CCN1C(=O)/C(=C/c2ccc(N(C)C)cc2)S/C1=N\c1cccc(C(=O)O)c1 | 52.4
72 | CCN1C(=O)/C(=C/c2c[nH]c3ccccc23)S/C1=N\c1cccc(C(=O)O)c1 | 61.9
73 | CCN1C(=O)/C(=C/c2ccccc2Br)S/C1=N\c1cccc(C(=O)O)c1 | 54.1
74 | CN1C(=O)/C(=C/c2ccc(Cl)cc2)S/C1=N\c1cccc(C(=O)O)c1 | 59.7
75 | CC(C)c1ccc(/C=C2\S/C(=N\c3cccc(C(=O)O)c3)N(C)C2=O)cc1 | 54
76 | COC(=O)COc1ccccc1/C=C1\S/C(=N\c2cccc(C(=O)O)c2)N(C)C1=O | 56.3
77 | CCN1C(=O)/C(=C/c2ccc(Br)cc2)S/C1=N\c1cccc(C(=O)O)c1 | 60.9

Row | Compound | inhibition [%]
78 | CC(C)N1C(=O)/C(=C/c2ccc(OCC(=O)O)cc2)S/C1=N\c1cccc(C(=O)O)c1 | 12.6
79 | CN1C(=O)/C(=C/c2cccc(C(F)(F)F)c2)S/C1=N\c1cccc(C(=O)O)c1 | 26.1
80 | Cc1cccc(/C=C2\S/C(=N\c3cccc(C(=O)O)c3)N(C)C2=O)c1 | 49.6
81 | CN1C(=O)/C(=C/c2ccc([N+](=O)[O-])cc2)S/C1=N\c1cccc(C(=O)O)c1 | 51.8
82 | CCCCN1C(=O)/C(=C/c2ccc(OCC(=O)O)cc2)S/C1=N\c1cccc(C(C)=O)c1 | 24.1
83 | CCCN1C(=O)/C(=C/c2ccc(OCC(=O)OC)cc2)S/C1=N\c1cccc(C(=O)O)c1 | 0
84 | CCN1C(=O)/C(=C/c2ccc([N+](=O)[O-])cc2)S/C1=N\c1cccc(C(=O)O)c1 | 32.7
85 | CCN1C(=O)/C(=C/c2ccc(OCC(=O)OC)cc2)S/C1=N\c1cccc(C(C)=O)c1 | 8.2
86 | CCN1C(=O)/C(=C/c2ccccn2)S/C1=N\c1cccc(C(=O)O)c1 | 38.7
87 | CCN1C(=O)/C(=C/c2ccc(Cl)c(Cl)c2)S/C1=N\c1cccc(C(=O)O)c1 | 37.8
88 | CN1C(=O)/C(=C/c2cnccc2C(F)(F)F)S/C1=N\c1cccc(C(=O)O)c1 | 34.4
89 | CCN1C(=O)/C(=C/c2ccccc2OC)S/C1=N\c1cccc(C(=O)O)c1 | 59.5
90 | COC(=O)COc1ccc(/C=C2\S/C(=N\c3cccc(C(C)=O)c3)N(C(C)C)C2=O)cc1 | 7.4
91 | CCN1C(=O)/C(=C/c2ccccc2OCC(=O)OC)S/C1=N\c1cccc(C(=O)O)c1 | 31
92 | CCN1C(=O)/C(=C/c2ccc(O)cc2)S/C1=N\c1cccc(C(C)=O)c1 | 3.4
93 | CN1C(=O)/C(=C/c2ccc(C(F)(F)F)cc2)S/C1=N\c1cccc(C(=O)O)c1 | 72.1
94 | CCN1C(=O)/C(=C/c2cnccc2C(F)(F)F)S/C1=N\c1cccc(C(=O)O)c1 | 46
95 | CCN1C(=O)/C(=C/c2ccc(OC)cc2)S/C1=N\c1cccc(C(=O)O)c1 | 56.2
96 | CN1C(=O)/C(=C/c2cccc(O)c2)S/C1=N\c1cccc(C(=O)O)c1 | 56.8
97 | CCN1C(=O)/C(=C/c2ccc(C(F)(F)F)cc2)S/C1=N\c1cccc(C(=O)O)c1 | 50.8
98 | CCN1C(=O)/C(=C/c2ccc(OCC(=O)OC)cc2)S/C1=N\c1cccc(C(=O)O)c1 | 9.9
99 | CCCN1C(=O)/C(=C/c2ccc(OCC(=O)OC)cc2)S/C1=N\c1cccc(C(C)=O)c1 | 0
100 | C=CCN1C(=O)/C(=C/c2ccc(OCC(=O)OC)cc2)S/C1=N\c1cccc(C(=O)O)c1 | 19.9
